Results on 19 compounds are retold here after US12391686B2, “Compounds and uses thereof” (Foghorn Therapeutics Inc., priority 2019, dated 2025).

For this assay, the target named is T1, Nanoluciferase-BRD9 fusion protein (3×FLAG-NLuc-BRD9) in SYO-1 cells (Homo sapiens, UniProt Q9H8M2).
T1 construct: expressed in transfected cells; host or cells: SYO-1
T1 sequence (Q9H8M2 1-597): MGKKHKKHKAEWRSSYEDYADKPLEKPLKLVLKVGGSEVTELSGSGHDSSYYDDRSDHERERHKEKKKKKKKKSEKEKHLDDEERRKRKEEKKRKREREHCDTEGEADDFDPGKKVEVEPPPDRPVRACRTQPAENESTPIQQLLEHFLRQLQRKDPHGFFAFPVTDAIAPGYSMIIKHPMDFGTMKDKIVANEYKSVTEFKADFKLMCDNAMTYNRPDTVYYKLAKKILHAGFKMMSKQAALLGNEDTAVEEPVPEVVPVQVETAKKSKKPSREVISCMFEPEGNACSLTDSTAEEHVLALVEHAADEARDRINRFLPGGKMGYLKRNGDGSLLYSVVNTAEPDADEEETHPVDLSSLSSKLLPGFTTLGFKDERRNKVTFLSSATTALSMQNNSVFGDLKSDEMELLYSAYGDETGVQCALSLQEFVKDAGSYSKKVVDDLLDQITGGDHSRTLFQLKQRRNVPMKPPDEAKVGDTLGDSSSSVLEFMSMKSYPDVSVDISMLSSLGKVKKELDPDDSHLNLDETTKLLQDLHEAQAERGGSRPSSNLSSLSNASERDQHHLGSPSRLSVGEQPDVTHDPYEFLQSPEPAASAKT
The assay is described as follows: SYO1 BRD9 NanoLuc Degradation Assay. The format is cell-based. The conditions noted are these: SYO-1 cells expressing 3×FLAG-NLuc-BRD9, 6 hours incubation, 1 μM top dose, read-out: SYO1 BRD9-NanoLuc degradation IC50. In short, it runs like this: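 NanoLuc signal, read by Nano-Glo luminescence after 6 h compound exposure, gives % inhibition against DMSO-treated cells (high control) and cells given 1 μM of a standard BRD9 degrader (low control). Test compounds ran as 10-point 3-fold series, top 1 μM final, in duplicate on SYO-1 cells stably expressing 3×FLAG-NLuc-BRD9.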

Read-outs that look alike come from different tables or passages of the source.

For the compound `COc1cc(-c2cn(C)c(=O)c3cnc(N(C)C)cc23)cc(OC)c1CN1CCN(CC2CCN(c3ccc4c(c3)C(=O)N(C3CCC(=O)NC3=O)C4=O)CC2)CC1` (stereo not shown) [Compound D155], the DC50 (Table 6B) is below 10 nM.
Regarding `COc1cc(-c2cn(C)c(=O)c3cnc(N(C)C)cc23)cc(OC)c1CN1CCN(C(C)(C)COc2ccc3c(c2)C(=O)N(C2CCC(=O)NC2=O)C3=O)CC1` (stereo not shown) [Compound D78], under “Table 6B”, the DC50 is below 10 nM.
Take `COc1cc(-c2cn(C)c(=O)c3cnc(N4CC(F)(F)C4)cc23)cc(OC)c1CN1CCC(CN2CCC3(CC2)CN(c2ccc4c(c2)C(=O)N(C2CCC(=O)N(C)C2=O)C4)C3)CC1` (stereo not shown) [Compound D261]: the DC50 (Table 6C) is at least 1000 nM.
For `C/C=C/Cn1cc(-c2cc(OC)c(CN3CCN(CCC4CCN(c5ccc6c(c5)C(=O)N(C5CCC(=O)NC5=O)C6=O)CC4)CC3)c(OC)c2)c2cc(N(C)C)ncc2c1=O` (stereo not shown) [Compound D151], the DC50 (Table 6B) is below 10 nM.
Consider `COc1cc(-c2cn(C)c(=O)c3cnc(N4CCC4)cc23)cc(OC)c1CN1CC(CN2CCC3(CC2)CN(c2ccc4c(c2)CN(C2CCC(=O)NC2=O)C4=O)C3)C1` (stereo not shown) [Compound D153], for which the DC50 (Table 6B) was below 10 nM.
For the compound `COc1cc(-c2cn(C)c(=O)c3cc(F)ccc23)cc(OC)c1CN1CCC(CN2CCC3(CC2)CC(Oc2ccc4c(c2)C(=O)N(C2CCC(=O)NC2=O)C4)C3)CC1` (stereo not shown) [Compound D287], the DC50 (Table 6C) was below 10 nM.
Take `COc1cc(-c2cn(C)c(=O)c3cnc(N(C)C)cc23)cc(OC)c1CN1CC(N2CCN(C3CCC(=O)NC3=O)C(=O)C2)C1` (stereo not shown) [Compound D94]: the DC50 (Table 6B) was in the range of 10 to 100 nM.
Same read-out and setting: to `COc1cc(-c2cn(C)c(=O)c3cnc(N(C)C)cc23)cc(OC)c1CN1CC(CN2CCC3(CC2)CN(c2ccc4c(c2)C(=O)N(C2CCC(=O)NC2=O)C4=O)C3)C1` (stereo not shown) [Compound D50] belongs below 10 nM; to `COc1cc(-c2cn(C)c(=O)c3cnc(N4CCC4)cc23)cc(OC)c1CN1CC(N2CCC(c3ccc4c(c3)C(=O)N(C3CCC(=O)NC3=O)C4)CC2)C1` (stereo not shown) [Compound D179], at least 1000 nM; to `COc1cc(-c2cn(C)c(=O)c3cnc(N(C)C)cc23)cc(OC)c1CN1CCN(C2(COc3ccc4c(c3)C(=O)N(C3CCC(=O)NC3=O)C4=O)COC2)CC1` (stereo not shown) [Compound D95], below 10 nM.
For `COc1cc(-c2cn(C)c(=O)c3cnc(N(C)C)cc23)cc(OC)c1CN(C)c1ccc2c(c1)CN(C1CCC(=O)NC1=O)C2=O` (stereo not shown) [Compound D277], the DC50 (Table 6C) is below 10 nM.
The same measure, in the same setting: next, `COc1cc(-c2cn(C)c(=O)c3cnc(N(C)C)cc23)cc(OC)c1CN1CC2(CCC(N3CCN(C4CCC(=O)NC4=O)C(=O)C3)CC2)C1` (stereo not shown) [Compound D252]: 10 to 100 nM.
As for `CNc1cc2c(-c3cc(OC)c(CN4CCN(CCC5CCN(c6ccc7c(c6)C(=O)N(C6CCC(=O)NC6=O)C7=O)CC5)CC4)c(OC)c3)cn(C)c(=O)c2cn1` (stereo not shown) [Compound D106], where the note is “Table 6B”, the DC50 is below 10 nM.
Regarding `CCc1cc(-c2cn(C)c(=O)c3cnc(N4CCC4)cc23)cc(OC)c1CN1CCC2(CC1)CN(c1ccc3c(c1)C(=O)N(C1CCC(=O)NC1=O)C3)C2` (stereo not shown) [Compound D264], the DC50 (Table 6C) was below 10 nM.
Still for that read-out and setting: to `[2H]C([2H])([2H])n1cc(-c2cc(OC)c(CN3CCC4(CC3)CN(c3ccc5c(c3)C(=O)N(C3CCC(=O)NC3=O)C5)C4)c(OC)c2)c2cc(OC)ncc2c1=O` (stereo not shown) [Compound D234] belongs below 10 nM.
On to `COc1cc(-c2cn(C)c(=O)c3cnc(N(C)C)cc23)cc(OC)c1CN1CCN(c2ccc3c(c2)C(=O)N(C2CCC(=O)NC2=O)C3)CC1` (stereo not shown) [Compound D113], for which, for the setting “Table 6B”, the DC50 is below 10 nM.
Take `[2H]C([2H])([2H])n1cc(-c2cc(OC)c(CN3CCC4(CC3)CN(c3ccc5c(c3)C(=O)N(C3CCC(=O)NC3=O)C5)C4)c(OC)c2)c2cc(C3CC3)ncc2c1=O` (stereo not shown) [Compound D233]: the DC50 (Table 6C) is below 10 nM.
Consider `COc1cc(-c2cn(C)c(=O)c3cnc(N(C)C)cc23)cc(OC)c1CN1CCC2(CC1)CC(N1CCN(c3ccc4c(c3)C(=O)N(C3CCC(=O)NC3=O)C4=O)CC1)C2` (stereo not shown) [Compound D56], for which the DC50 (Table 6B) is below 10 nM.
On the same count and under the same terms, to `COc1cc(-c2cn(C)c(=O)c3cnc(OC(F)F)cc23)cc(OC)c1CN1CC(CN2CCC3(CC2)CN(c2ccc4c(c2)C(=O)N(C2CCC(=O)NC2=O)C4)C3)C1` (stereo not shown) [Compound D175] belongs at least 1000 nM.
